Entries after “also recorded” stand apart in the source; their conditions may differ.
Experiments:
Male Long Evans rats = test: In vivo antispermatogenic testing in Long Evans rats; details: for Mortality (25 mg/kg) / Response 25 mg/kg: 25 mg/kg single i.p. injection; for Response 25 mg/kg / Response 200 mg/kg: animals responding out of animals surviving, five days following injection; for Mortality (200 mg/kg) / Response 200 mg/kg: 200 mg/kg single i.p. injection
rats = test: Toxicology: organs sectioned and examined after dosing; assay type: in vivo; details: for Toxicology: liver, lung, pancreas, spleen, heart and kidney (histology): two animals examined, findings per animal; for Kidney (histology) / Liver and Pancreas (histology): single injection, sacrificed five days after injection, per animal
Description: In at least two of the animals in each group, the pancreas, right kidney and part of the liver, heart, spleen, and lung were removed and evaluated for toxic effects.
The toxicology of animals receiving some of the compounds of the present invention IP and/or oral was examined. At the time of sacrifice samples of liver, pancreas, heart, lung, spleen and kidney were removed, visually inspected, and immersion fixed in Bouin's solution for a minimum of 48 hours. All organs were then sectioned and examined for evidence of necrosis, inflammation, hemorrhage, and possible tumors. The major veins in each tissue were also examined for distention, especially in the liver and pancreas, and any other abnormalities are compared to known histopathological states. In addition to the above, the heart was examined for evidence of fibrosis in the muscular walls, and to compare the thickness of the ventricular walls. The pancreas was examined mainly for calcium deposits, while the lung was checked for signs of any exudates or hemorrhage, especially in the alveolar spaces. Finally, the kidney was examined mainly for microscopic hemorrhages, tubular necrosis or alterations in the glomeruli in the cortex.
In this example, the effects of RC-MC-30 were compared with those of lonidamine in sexually mature rats. As discussed above, each of the rats (8 total) received a single injection and were sacrificed five days after injection and examined.

[1] = system: Salmonella Typhimurium TA 100; test: Ames test for mutagenicity (plate assay, colony count); details: 48 hours at 37° C.; for Ames test (+)S9 0.1 mg/pl. / Ames test (+)S9 1 mg/pl. / Ames test (+)S9 10 mg/pl.: (+)S9 mix; for Ames test (−)S9 0.1 mg/pl. / Ames test (−)S9 1 mg/pl. / Ames test (−)S9 10 mg/pl.: (−)S9 mix

Row | SMILES | Mortality (25 mg/kg) (Male Long Evans rats) | Response 25 mg/kg (Male Long Evans rats) | Mortality (200 mg/kg) (Male Long Evans rats) | Response 200 mg/kg (Male Long Evans rats) | Toxicology: liver, lung, pancreas, spleen, heart and kidney (histology) (rats; 25 mg/kg) | Toxicology: liver, lung, pancreas, spleen, heart and kidney (histology) (rats; 200 mg/kg) | Ames test (+)S9 0.1 mg/pl. [1] | Ames test (+)S9 1 mg/pl. [1] | Ames test (+)S9 10 mg/pl. [1] | Ames test (−)S9 0.1 mg/pl. [1] | Ames test (−)S9 1 mg/pl. [1] | Ames test (−)S9 10 mg/pl. [1] | Kidney (histology) (rats; Dosage 25 mg/kg) | Liver and Pancreas (histology) (rats; Dosage 25 mg/kg) | Kidney (histology) (rats; Dosage 200 mg/kg) | Liver and Pancreas (histology) (rats; Dosage 200 mg/kg) | Toxicology: liver, lung, pancreas, spleen, heart and kidney (histology) (rats; 200 mg/kg, listed as JSW-1-162)
1 | O=C(O)/C=C/c1nn(Cc2ccc(Cl)cc2Cl)c2cc(F)ccc12 [JWS-1-170, 3-[1-(2,4-dichlorobenzyl)-6-fluoro-1H-indazol-3-yl]-acrylic acid] | 0/5 | 3/5 | 0/5 | 3/3 | liver, lung, pancreas, spleen, heart and kidney that appeared within normal limits | liver, lung, pancreas, spleen, heart and kidney all appeared within normal limits; also recorded: The liver did have moderate patches (5-10 cells in diameter) of necrosis mainly in the periportal areas | Pass | Pass | Pass | Pass | Pass | Pass |  |  |  |  | 
2 | COC(=O)c1nn(Cc2ccc(Cl)cc2Cl)c2ccccc12 [RC-MC-30, 1-(2,4-dichlorobenzyl)indazole-3-carboxylic acid methyl ester] | 0/5 | 3/5 | 0/5 | 4/5 |  |  | Pass | Pass | Pass | Pass | Pass | Pass | Small areas with blood | Non-remarkable, | Patchy hemorrhagic areas, | Non-remarkable, | 
3 | COc1ccc2c(n1)c(C(=O)NN)nn2Cc1ccc(Cl)cc1Cl [JWS-1-146, 1-(2,4-dichlorobenzyl)-5-methoxy-1H-pyrazolo[4,3-b]pyridine-3-carboxylic acid hydrazide] | 0/5 | 0/5 |  |  | liver, lung, pancreas, spleen, heart and kidney that appeared within normal limits |  | Pass | Pass | Pass | Pass | Pass | Pass |  |  |  |  | 
4 | O=C(O)c1nn(Cc2ccc(Cl)cc2Cl)c2cccnc12 [JWS-1-114, 1-(2,4-dichlorobenzyl)-1H-pyrazolo[4,3-b]pyridine-3-carboxylic acid] | 0/5 | 1/5 | 0/5 | 0/5 | liver, lung, pancreas, spleen, heart and kidney that appeared within normal limits | The lung had massive pulmonary hemorrhaging around the bronchioles; also recorded: The liver had moderate sized (5-10 cell in diameter) necrotic patches generally in the periportal areas; also recorded: liver, lung, pancreas, spleen, heart and kidney that appeared within normal limits | Pass | Pass | Pass | Pass | Pass | Pass |  |  |  |  | 
5 | CCCOC(=O)c1nn(Cc2ccc(Cl)cc2Cl)c2ccccc12 [RC-MC-158, 1-[(2,4-dichlorobenzyl)-1H-indazole]-3-carboxylic acid propyl ester] | 0/5 | 2/5 | 0/5 | 5/5 | liver, lung, pancreas, spleen, heart and kidney all appeared within normal limits; also recorded: The lung did have small scattered hemorrhagic areas, mainly around the alveoli and terminal bronchioles | The lung had multiple, large hemorrhagic areas, mainly in the alveolar regions with some hemosiderin deposits; also recorded: The lung contained multiple large hemorrhagic areas, mainly in the alveoli; also recorded: The liver contained small, scattered necrotic areas, generally around the portal veins | Mar- | Pass | Pass | Pass | Pass | Pass |  |  |  |  | 
6 | O=C(O)c1nn(Cc2ccc(Cl)cc2Cl)c2cc(F)ccc12 [JWS-1-162, 1-(2,4-dichlorobenzyl)-6-fluoro-1H-indazole-3-carboxylic acid] |  |  |  |  | liver, lung, pancreas, spleen, heart and kidney all appeared within normal limits |  | Pass | Pass | Pass | Pass | Pass | Pass |  |  |  |  | The lung had scattered hemorrhagic patches surrounding many of the small bronchioles; also recorded: The lung had moderate regions showing thickening of the alveolar walls, with a clear exudates slightly stained by eosin filling the alveoli
7 | NNC(=O)c1nn(Cc2ccc(F)cc2F)c2cc(C(F)(F)F)ccc12 [JWS-1-274, 1-(2,4-difluorobenzyl)-6-trifluoromethyl-1H-indazole-3-carboxylic acid hydrazide] | 0/5 | 0/5 | 0/5 | 0/5 |  |  | Pass | Pass | Pass | Pass | Pass | Pass |  |  |  |  | 
8 | O=C(O)c1nn(Cc2ccc(F)cc2F)c2cc(C(F)(F)F)ccc12 [JWS-1-276, 1-(2,4-difluorobenzyl)-6-trifluoromethyl-1H-indazole-3-carboxylic acid] | 0/5 | 0/5 | 0/5 | 0/5 |  |  | Pass | Pass | Pass | Pass | Pass | Pass |  |  |  |  | 
9 | COC(=O)c1nn(Cc2ccc(F)cc2F)c2cc(C(F)(F)F)ccc12 [JWS-1-270, 1-(2,4-difluorobenzyl)-6-trifluoromethyl-1H-indazole-3-carboxylic acid methyl ester] | 0/5 | 0/5 | 0/5 | 0/5 |  |  | Pass | Pass | Pass | Pass | Pass | Pass |  |  |  |  | 

From patent US8362031B2, “Lonidamine analogues and treatment of polycystic kidney disease” (University of Kansas, priority 2004, dated 2013)
